Results on three molecules are retold here after patent publication US12138369B2, “Magnetically-activated coating for treating biofilms, and associated systems and methods” (priority 2016, dated 2024).

Structures can show the parent of a compound that is named as a salt.

Test [1] relates to dispersed planktonic bacteria (Pseudomonas aeruginosa PAO1). The test can be described thus: Optical density measurements of planktonic bacteria dispersed from biofilm. The test is classed as cell-based. As to the method: Optical Density Measurements of Planktonic Bacteria: The planktonic bacteria that had escaped the biofilm via dispersion after the thermal treatment were optically observed to better understand the biofilm's dispersion post-thermal treatment while antibiotics were still present. To estimate the free-swimming bacteria following the antibiotic treatment, the optical density (BioTek Gen5 Microplate Reader, Winooski, Vt., USA) at 600 nm was measured for each well in the second challenge plate. The negative controls in the challenge plate contained only TSB and were used to calculate an average background.
Statistical Analysis: The statistical analysis of both the planktonic optical density reads and the logarithmic CFU counts were reported via their arithmetic mean and standard deviation. […] Statistical analysis was performed in GraphPad Prism 7 using the two-way ANOVA with a confidence interval of 95%.

Test [2] concerns Pseudomonas aeruginosa PAO1 biofilms. Description: MBEC assay: antibiotic exposure with or without thermal shock, biofilm enumeration. The format is cell-based. To be noted: for viable biofilm bacteria after combined treatment: 1 min thermal shock; for effect on biofilm populations: higher concentrations, antibiotic on its own, cannot reliably eliminate. The method, then: Biofilm Growth: Cryogenically preserved Pseudomonas aerugiona PAO1 (15692, American Type Culture Collection, Manassas, Va.) was thawed and streaked on an agar plate (Difco Nutrient Agar, Sparks, Md., USA). The agar plates were inverted and incubated at 37° C. for 24 hours. An inoculum was made by suspending two colony forming units (CFUs) from the agar plate in five milliliters of sterile tryptic soy broth (TSB, BD Bacto, Sparks, Md., USA) made as directed and incubated at 37° C. for 24 hours, achieving an average concentration of 2.12×109±0.07×10^9 CFU/mL. One milliliter of inoculum was then diluted into 15 mL TSB and mixed gently. One hundred fifty microliters of the diluted mixture was then placed into each well of the 96-well plate, except for the negative control wells which received 150 μL of TSB. The plate was part of an MBEC™ assay (Innovotech, Edmonton, AB, Canada) in which a corresponding array of 96 pegs protrudes from the plate lid into the wells, providing a convenient array of substrates for biofilm growth which are then readily transferred to new wells (Harrison et al. 2010). The peg lid was placed onto the 96-well plate then sealed using Parafilm and placed on an orbital shaker table (VWR 1000, 15 mm orbit, Thorofare, N.J., USA) at 160 rpm and incubated at 37° C. for 24 hours.
Antibiotic Preparation: A stock of 5 mg/mL ciprofloxacin in sterile, de-ionized water was prepared with ciprofloxacin hydrochloride (MP Biomedicals, Santa Ana, Calif., USA) and mixed thoroughly. Tobramycin stock was made in a similar fashion by mixing 5 mg/mL tobramycin sulfate salt (Sigma-Aldrich, St. Louis, Mo., USA) in sterile, de-ionized water. Erythromycin was obtained from MP Biomedicals and the stock was prepared by mixing 5 mg/mL erythromycin into ethanol. Each antibiotic mixture was then filter sterilized through a […] PES membrane sterile filter (Millex®GP filter unit) and stored at 2° C. Each antibiotic was then diluted from the stock solution into sterile TSB at an array of concentrations in a 96-well challenge plate used that day.
Antibiotic Exposure: After 24 hr of growth, the array of biofilm-covered pegs was transferred into a 96-well rinse plate (Costar® 96 well flat bottom cell culture, Corning Incorporated, NY, USA) containing 200 μL/well de-ionized, sterile water at ambient temperature for 2 min to remove bacteria not incorporated in the biofilm. The peg lid was then transferred to a 96-well challenge plate of wells containing 200 μL of various concentrations of ciprofloxacin, tobramycin, or erythromycin diluted in TSB. For the antibiotic experiments without thermal shock the peg lid was exposed to a single challenge plate for 24 hours in an incubator at 37° C. before rinsing again for 2 min in a new rinse plate. The peg lid was then transferred to a recovery plate containing 200 μL/well fresh, sterile TSB for resuspension and enumeration.
Antibiotic and Thermal Exposure: To investigate the combined effect of antibiotics and thermal shock, biofilms cultured and exposed to antibiotics as discussed above were removed from their antibiotic challenge plate after only four hours. They were quickly transferred to a challenge plate with the same array of antibiotic concentrations, preheated to the target temperature by a thermostatted water bath. Temperatures of 37° C., 50° C., 60° C., 70° C., and 80° C. were studied at exposure times of 1, 5, and 30 min. The pegs were left in the heated challenge plate for the desired exposure time, then transferred to a new challenge plate with the same antibiotic concentrations at 37° C. and incubated for the remainder of the total 24 hour antibiotic exposure time. Following 24 total hours of antibiotic exposure time the peg lid was rinsed once again for two minutes in a new rinse plate and placed into a recovery plate for resuspension and enumeration. […]

For the molecule `O=C(O)c1cn(C2CC2)c2cc(N3CCNCC3)c(F)cc2c1=O` [Ciprofloxacin, ciprofloxacin hydrochloride], the “effect on dispersed planktonic bacteria” value in test [1] (0.125, 1.0, and 4.0 μg/mL, OD 600 nm) is “effective against the planktonic bacteria”; in test [1] (higher two concentrations (1.0, 4.0 μg/mL), regardless of thermal shock) it was “killing off almost all the free-swimming bacteria”. In test [2] (0.125 μg/mL by itself), the effect on biofilms entry was “little effect”. In addition, the “reduction of biofilm populations” value in test [2] (0.125 μg/mL combined with thermal shock at 60° C. for 5 min) and in test [2] (0.125 μg/mL combined with thermal shock at 70° C. for 1 min) was “five orders of magnitude” each time. Moreover, the “viable biofilm bacteria after combined treatment” value in test [2] (1 μg/mL combined with 70° C.) and in test [2] (4 μg/mL combined with 70° C.) was “no viable bacteria” throughout. Moreover, the “decrease in viable bacteria of biofilms” value is recorded as “at least a five-order magnitude decrease” in test [2] (1 μg/mL, regardless of the heating) and “at least a five-order magnitude decrease” in test [2] (4 μg/mL (bloodstream concentration), regardless of the heating). In addition, the “effect on biofilm populations” value in test [2] is “significantly reduce biofilm populations”.
Take `CC[C@H]1OC(=O)[C@H](C)[C@@H](O[C@H]2C[C@@](C)(OC)[C@@H](O)[C@H](C)O2)[C@H](C)[C@@H](O[C@@H]2O[C@H](C)C[C@H](N(C)C)[C@H]2O)[C@](C)(O)C[C@@H](C)C(=O)[C@H](C)[C@@H](O)[C@]1(C)O` [Erythromycin, erythromycin]: the “effect on dispersed planktonic bacteria” value in test [1] (2 μg/mL) is reported as “no discernible effect”; in test [1] (64 μg/mL, even without thermal shock), “significant reduction in population”; in test [1] (128 μg/mL), “further decrease in viable planktonic bacterial cells”. In addition, the “effect on dispersed planktonic bacteria, combined treatment” value in test [1] (with 60° C. thermal shock for 5 min) is reported as “significantly reduced from the non-thermal-shocked values”. Also, the “decrease in viable bacteria of biofilms” value in test [2] (60° C. for 5 min, 64 μg/mL) is reported as 1.5 log(CFU/peg); in test [2] (60° C. for 5 min, 128 μg/mL), 2.7 log(CFU/peg); in test [2] (70° C. for 1 min, 64 μg/mL), 2.3 log(CFU/peg); in test [2] (70° C. for 1 min, 128 μg/mL) it was 6.0 log(CFU/peg). The effect on biofilms result in test [2] (any concentration, control temperature 37° C.) is “no effect”; in test [2] (any concentration, in combination with 50° C. thermal treatments), “no effect”.
As for tobramycin sulfate salt, the “effect on dispersed planktonic bacteria” value in test [1] (1.0, 2.0, and 4.0 μg/mL, OD 600 nm) was “effective against the planktonic bacteria”; in test [1] (higher two concentrations (2.0, 4.0 μg/mL), regardless of thermal shock) it was “killing off almost all the free-swimming bacteria”. Besides, in test [2] (50° C. for 30 min, 60° C. for 5 min, and 70° C. for 1 min), the “effect of combined thermal shock and antibiotic on biofilm” value is listed as “larger than either treatment by itself”. Besides, the “trend of biofilm mitigation with thermal exposure time” value in test [2] (all non-zero concentrations, regardless of temperature (not at 37° C. control)) was “prolonged thermal exposure time increasing the overall efficacy of biofilm mitigation”. Moreover, the “effect on biofilm populations” value in test [2] is reported as “significantly reduce biofilm populations”.
